Reference: patent publication EP0933027A1, “Methods and compositions for protecting animals and humans against attack and infestation by arthropod and helminth parasites” (American Cyanamid Company, priority 1998, dated 1999)
Where two headings read alike, the source gives them in different places.

Legend:
[1] = test system: Dermacentor variabilis; assay: Contact activity against larval American dog tick (coated vial)
Method: This test is designed to evaluate the contact activity of test compounds against the American dog tick. Test compounds are dissolved in 100% acetone to 1000, 300, 100, 10, 1 and 0.1 ppm. 100 µL of each of these dilutions is added to the bottom of a 20 mL glass scintillation vial with a pipettor. The vial is allowed to dry under a fume hood for 15 minutes. The vial is then turned in its side, and 250 µL of each dilution is applied to the sides of the vial. The vial is placed on a rolling machine and allowed to roll under the hood, coating the sides of the vial, until the acetone completely evaporates. The bottom of the vial measures 4.909 cm^2 and the sides measure 4.5 cm high x 8.8 cm around, so that the total coated area of the scintillation vial measures 44.51 cm^2. The amount of test compound applied by each dilution equals 7.86, 2.36, 0.79, 0.079, 0.0079 and 0.00079 µg/cm^2, respectively. Unfed larval dog ticks are counted into the scintillation vials with a slightly damp paintbrush. Ten ticks are placed in each vial. These tests are done in replicates of two or three so that there are 20 to 30 ticks per rate/compound. Mortality readings are taken 4 and 24 hours after placing the ticks in the vials. To read the test, the vial is placed under a magnifying glass and tapped gently. […] Percent mortality is then calculated for each treatment.

[2] = test system: Musca domestica; assay: Coated vial test against adult house fly
Method: This test is designed to evaluate the activity of test compounds against the house fly. Test compounds are dissolved in 100% acetone to 1000, 300, 100, 10 and 1 ppm. 100 µL of each of these dilutions is added to the bottom of a 20 mL glass scintillation vial with a pipettor. The vial is allowed to dry under a fume hood for 15 minutes. The vial is then turned on its side, and 250 µL of each dilution is applied to the sides of the vial. The vial is placed on a rolling machine and allowed to roll under the hood, coating the sides of the vial, until the acetone completely evaporates. The bottom of the vial measures 4.909 cm^2 and the sides measure 4.5 cm high x 8.8 cm around, so that the total coated area of the scintillation vial measures 44.51 cm^2. The amount of test compound applied by each dilution equals 7.86, 2.36, 0.79, 0.079, and 0.0079 µg/cm^2, respectively. Included in all tests are two to three replications of untreated vials. Adult house flies which are five to seven days old are chilled in a freezer for five minutes to immobilize, and are placed on a sorting platform which provides a steady stream of CO2 to keep the flies immobile. Five flies are counted into each scintillation vial with forceps. The top of the vial is plugged with a wad of sheet cotton sufficient to contain the flies. These tests are done in replicates of two to four so that there are 10 to 20 flies per rate/compound. Mortality readings are taken 1 and 4 hours after placing the flies in the vials. Flies which are unable to stand when disturbed are considered dead. Percent mortality is then calculated for each treatment.

[3] = dose 0.079 µg/cm^2, 4 hours, read-out: 4 Hour % Mortality
[4] = dose 0.790 µg/cm^2, 4 hours, read-out: 4 Hour % Mortality
[5] = dose 2.360 µg/cm^2, 4 hours, read-out: 4 Hour % Mortality

CCOc1ccc(C(/C(F)=C/Cc2ccc(F)c(Oc3ccccc3)c2)C2CC2)cc1 (centres unmarked) [Compound 10, 1-[1-(p-Ethoxyphenyl)-2-fluoro-4-(4-fluoro-3-phenoxyphenyl)-2-butenyl]cyclopropane, (Z)-]
mortality at 0.079 µg/cm2 [1, 3]: 100% | mortality at 0.079 µg/cm2 ([1]; dose 0.079 µg/cm^2, 24 hours, read-out: 24 Hour % Mortality): 100% | mortality at 0.79 µg/cm2 [1, 4]: 100% | mortality at 0.79 µg/cm2 ([1]; dose 0.790 µg/cm^2, 24 hours, read-out: 24 Hour % Mortality): 100% | mortality at 2.36 µg/cm2 [1, 5]: 100% | mortality at 2.36 µg/cm2 ([1]; dose 2.360 µg/cm^2, 24 hours, read-out: 24 Hour % Mortality): 100% | mortality at 7.86 µg/cm2 ([1]; dose 7.860 µg/cm^2, 4 hours, read-out: 4 Hour % Mortality): 100% | mortality at 7.86 µg/cm2 ([1]; dose 7.860 µg/cm^2, 24 hours, read-out: 24 Hour % Mortality): 100% | mortality at 0.079 µg/cm2 ([2]; dose 0.079 µg/cm^2, 1 hour, read-out: 1 Hour % Mortality): 20% | mortality at 0.079 µg/cm2 [2, 3]: 60% | mortality at 0.79 µg/cm2 ([2]; dose 0.790 µg/cm^2, 1 hour, read-out: 1 Hour % Mortality): 20% | mortality at 0.79 µg/cm2 [2, 4]: 75% | mortality at 2.36 µg/cm2 ([2]; dose 2.360 µg/cm^2, 1 hour, read-out: 1 Hour % Mortality): 40% | mortality at 2.36 µg/cm2 [2, 5]: 100%
